Where a name gives a salt, the structure may show the parent alone.
Target: T1, human FGFR3 wild type enzyme (cytoplasmic domain) (Homo sapiens, UniProt P22607)
T1 construct: human FGFR3 wild type enzyme (cytoplasmic domain, from Carna Biosciences); purchased Carna Biosciences
Test: FGFR3 wild type mobility shift assay (enzymatic assay)
Assay type: biochemical
Settings: 75 μM ATP, 50 minutes at 30° C, Caliper EZ reader II
From the text: FGFR3 Wild Type Mobility Shift Assay (Enzymatic Assay)

T1 sequence (P22607 397-806 limits assumed): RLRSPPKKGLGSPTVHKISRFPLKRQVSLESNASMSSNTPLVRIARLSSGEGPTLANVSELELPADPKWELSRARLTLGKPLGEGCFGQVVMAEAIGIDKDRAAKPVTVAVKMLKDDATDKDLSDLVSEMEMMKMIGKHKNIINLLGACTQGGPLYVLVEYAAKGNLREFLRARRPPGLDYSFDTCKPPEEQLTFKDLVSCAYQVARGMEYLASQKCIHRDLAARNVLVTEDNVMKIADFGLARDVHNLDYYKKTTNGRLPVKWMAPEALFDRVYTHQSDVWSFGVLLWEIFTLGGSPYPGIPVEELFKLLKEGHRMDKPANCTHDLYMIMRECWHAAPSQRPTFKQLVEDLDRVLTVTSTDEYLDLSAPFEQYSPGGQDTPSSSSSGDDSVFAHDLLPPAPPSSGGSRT

IC50 [µM] | Compound
0.156 | C[C@H](Nc1c(-c2nc3cnc(N4CCOCC4)cc3[nH]2)c(=O)[nH]c2cn(C)nc12)c1cocn1 [Compound 56, (S)-2-methyl-6-(6-morpholino-1H-imidazo[4,5-c]pyridin-2-yl)-7-((1-(oxazol-4-yl)ethyl)-amino)-2,4-dihydro-5H-pyrazolo[4,3-b]pyridin-5-one]
0.811 | Cc1cc2nc(-c3c(N[C@@H](C)c4cocn4)c4nn(C)cc4[nH]c3=O)[nH]c2cc1N1CCOCC1 [Compound 55, (S)-2-methyl-6-(5-methyl-6-morpholino-1H-benzo[d]imidazol-2-yl)-7-((1-(oxazol-4-yl)-ethyl)amino)-2H-pyrazolo[4,3-b]pyridin-5(4H)-one]
1.24 | CC(Nc1c(-c2nc3cc(C(F)(F)F)c(N4CCOCC4)cc3[nH]2)c(=O)[nH]c2cn(C)nc12)c1ncccn1 (single isomer, unassigned) [Compound 20, (S*)2-Methyl-6-(6-morpholino-5-(trifluoromethyl)-1H-benzo[d]imidazol-2-yl)-7-((1-(pyrimidin-2-yl)ethyl)amino)-2H-pyrazolo[4,3-b]pyridin-5(4H)-one]
0.0465 | C[C@H](Nc1c(-c2nc3c(F)cc(N4CCOCC4)c(F)c3[nH]2)c(=O)[nH]c2cn(C)nc12)c1ncccn1 (single isomer, unassigned) [Compound 17, (S*)-6-(4,7-difluoro-6-morpholino-1H-benzo[d]imidazol-2-yl)-2-methyl-7-((1-(pyrimidin-2-yl)ethyl)amino)-2H-pyrazolo[4,3-b]130pyridine-5(4H)-one]
0.12 | C[C@H](Nc1c(-c2nc3ccc(N4CCN(C)CC4)cc3[nH]2)c(=O)[nH]c2cn(C)nc12)c1ncccc1C(F)(F)F (single isomer, unassigned) [Compound 31, (S*)-2-methyl-6-(6-(4-methylpiperazin-1-yl)-1H-benzo[d]imidazol-2-yl)-7-((1-(3-(trifluoromethyl)pyridin-2-yl)ethyl)amino)-2H-pyrazolo[4,3-b]pyridin-5(4H)-one 0.3 formate]
0.0717 | CC(Nc1c(-c2nc3ccc(OC4CCOCC4)cc3[nH]2)c(=O)[nH]c2cn(C)nc12)c1cocn1 (single isomer, unassigned) [Compound 37, (R*)-2-methyl-7-((1-(oxazol-4-yl)ethyl)amino)-6-(6-((tetrahydro-2H-pyran-4-yl)oxy)-1H-benzo[d]imidazol-2-yl)-2H-pyrazolo[4,3-b]pyridin-5(4H)-one]
0.531 | CCC(Nc1c(-c2nc3ccc(N4CCOCC4)cc3[nH]2)c(=O)[nH]c2cn(C)nc12)c1ncccn1 (single isomer, unassigned) [Compound 40, (R*)-2-methyl-6-(6-morpholino-1H-benzo[d]imidazol-2-yl)-7-((1-(pyrimidin-2-yl)-propyl)amino)-2H-pyrazolo[4,3-b]pyridin-5(4H)-one]
0.0392 | CC(Nc1c(-c2nc3ccc(N4CCCCC4)cc3[nH]2)c(=O)[nH]c2cn(C)nc12)c1ncccn1 (single isomer, unassigned) [Compound 35, (R*)-2-methyl-6-(6-(piperidin-1-yl)-1H-benzo[d]imidazol-2-yl)-7-((1-(pyrimidin-2-yl)-ethyl)amino)-2H-pyrazolo[4,3-b]pyridin-5(4H)-one]
0.0957 | COc1cc(N2CCOCC2)cc2[nH]c(-c3c(NC(C)c4ncccn4)c4nn(C)cc4[nH]c3=O)nc12 (single isomer, unassigned) [Compound 50, (R*)-6-(4-methoxy-6-morpholino-1H-benzo[d]imidazol-2-yl)-2-methyl-7-((1-(pyrimidin-2-yl)ethyl)amino)-2,4-dihydro-5H-pyrazolo[4,3-b]pyridin-5-one]
0.0883 | CC[C@H](Nc1c(-c2nc3ccc(N4CCOCC4)cc3[nH]2)c(=O)[nH]c2cn(CC)nc12)c1ncccn1 (single isomer, unassigned) [Compound 3, (S*)-2-ethyl-6-(6-morpholino-1H-benzo[d]imidazol-2-yl)-7-((1-(pyrimidin-2-yl)propyl)-amino)-2H-pyrazolo[4,3-b]pyridin-5(47f)-one]

From patent US11691970B2, “Pyrazolopyridinone compounds” (Janssen Pharmaceutica NV, priority 2017, dated 2023)
